Data published in paper PMC10798554, “Interaction of PINK1 with nucleotides and kinetin” (Science Advances, 2024).

Columns and labels:
Format in all cases: biochemical
[1] = molecular target: T1, PhPINK1 (residues 115 to 575) (Pediculus humanus, UniProt E0W1I1); assay: ubiquitin phosphorylation, Phos-tag SDS-PAGE; details: 1 mM ATP, 15 uM ubiquitin, 10 mM MgCl2, pH 7.4, 22 C
T1 construct: gene Pink1; residues 115-575, kinase domain with N- and C-terminal extensions; E. coli Rosetta2; N-terminal GST tag with 3C protease site in vector; autophosphorylated monomer for thermal shift, lambda-phosphatase-treated homo-dodecamer (six dimers) for cryo-EM
T1 sequence (E0W1I1 115-575): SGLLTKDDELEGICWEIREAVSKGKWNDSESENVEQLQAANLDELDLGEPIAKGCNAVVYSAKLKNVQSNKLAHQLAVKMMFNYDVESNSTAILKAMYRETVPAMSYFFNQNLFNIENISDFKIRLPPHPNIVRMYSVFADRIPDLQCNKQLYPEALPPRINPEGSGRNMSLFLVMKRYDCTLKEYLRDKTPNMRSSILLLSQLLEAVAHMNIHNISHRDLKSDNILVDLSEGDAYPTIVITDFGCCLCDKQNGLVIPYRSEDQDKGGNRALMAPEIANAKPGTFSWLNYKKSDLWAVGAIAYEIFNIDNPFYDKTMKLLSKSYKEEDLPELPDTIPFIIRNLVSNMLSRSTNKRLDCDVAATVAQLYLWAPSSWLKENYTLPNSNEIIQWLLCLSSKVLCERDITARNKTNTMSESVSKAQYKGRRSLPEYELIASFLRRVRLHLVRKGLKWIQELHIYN

HsPINK1 [2] = molecular target: T2, HsPINK1 (Homo sapiens, UniProt Q9BXM7, M318A); assay: ubiquitin phosphorylation by heavy membranes, pSer65 Western blot; details: 15 uM ubiquitin, pH 7.4, 30 C
T2 construct: gene PINK1; HsPINK1 expressed transiently (pcDNA5d3) in HeLa PINK1-/- cells; heavy membrane fraction after oligomycin/antimycin treatment
T2 sequence (Q9BXM7 78-581 M318A): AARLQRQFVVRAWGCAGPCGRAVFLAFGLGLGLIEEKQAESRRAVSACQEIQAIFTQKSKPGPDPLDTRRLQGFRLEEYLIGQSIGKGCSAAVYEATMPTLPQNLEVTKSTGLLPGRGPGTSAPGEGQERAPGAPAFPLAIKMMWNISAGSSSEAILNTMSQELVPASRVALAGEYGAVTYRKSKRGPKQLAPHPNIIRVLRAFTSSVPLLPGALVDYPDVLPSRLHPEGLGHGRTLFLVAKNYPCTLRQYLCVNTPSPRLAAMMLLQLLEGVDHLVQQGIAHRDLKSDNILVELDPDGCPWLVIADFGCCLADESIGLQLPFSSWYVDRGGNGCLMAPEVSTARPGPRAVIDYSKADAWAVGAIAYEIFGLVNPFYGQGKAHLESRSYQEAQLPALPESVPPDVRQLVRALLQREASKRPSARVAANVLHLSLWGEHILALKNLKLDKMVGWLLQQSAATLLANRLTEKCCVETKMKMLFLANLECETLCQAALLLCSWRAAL

HsPINK1 [3] = molecular target: T3, HsPINK1 (Homo sapiens, UniProt Q9BXM7, M318G); assay: as above; details: 1 mM KTP, 15 uM ubiquitin, pH 7.4, 30 C
T3 construct: gene PINK1; HsPINK1 expressed transiently (pcDNA5d3) in HeLa PINK1-/- cells; heavy membrane fraction after oligomycin/antimycin treatment
T3 sequence (Q9BXM7 78-581 M318G): as the sequence (Q9BXM7 78-581 M318A) above, with A241G counted along it

| SMILES | ubiquitin phosphorylation, Phos-tag SDS-PAGE [1] | ubiquitin phosphorylation by heavy membranes, pSer65 Western blot (HsPINK1 [2]; 1 mM ATP) | ubiquitin phosphorylation by heavy membranes, pSer65 Western blot (HsPINK1 [3]) | ubiquitin phosphorylation by heavy membranes, pSer65 Western blot (HsPINK1 [2]; 1 mM KTP) |
| --- | --- | --- | --- | --- |
| Nc1ncnc2c1ncn2[C@@H]1O[C@H](COP(=O)(O)OP(=O)(O)OP(=O)(O)O)[C@@H](O)[C@H]1O [ATP] | Time course ubiquitin phosphorylation assay using WT PhPINK1 in the presence of ATP | HsPINK1 M318A, is active with both ATP and KTP |  |  |
| O=P(O)(O)OP(=O)(O)OP(=O)(O)OC[C@H]1O[C@@H](n2cnc3c(NCc4ccco4)ncnc32)[C@H](O)[C@@H]1O [KTP] |  |  | both mutants were able to use KTP instead of ATP to generate phospho-ubiquitin | both mutants were able to use KTP instead of ATP to generate phospho-ubiquitin |
